Results on six molecules are retold here after PMC8196563, “Trichilones A–E: New Limonoids from Trichilia adolfi” (Molecules, 2021).

Converted amounts (≈) assume the structure as drawn. Like-named read-outs stand apart in the source and are kept apart here.

The subject of data set [1] is L. braziliensis promastigotes. In words: In vitro leishmanicidal activity against promastigotes. It is filed as cell-based. The settings on record: Leishmania braziliensis, 72 h, read-out: Leishmanicidal activity L.b, IC50. How it is done:
(§1) Leishmanicidal activity was assayed according to Williams, with some modi-fication. Promastigotes of Leishmania: L. amazonensis, Clone 1, NHOM-BR-76-LTB-012 (Lma, donated by the Paul Sabatier Université, France) and L. braziliensis M2904 C192 RJA (M2904, donated by Dr. Jorge Arévalo from Universidad Peruana Cayetano Heredia, Peru). The strains were cultured in Schneider’s insect medium (pH 6.2), supplemented with 10% FBS and incubated in 96-microwell plates at 26 °C. Briefly, promastigotes in logarithmic phase of growth, at concentration of […], were exposed to samples dissolved in DMSO (1%) at different concentrations (3.1–100 μg/mL). Miltefosine (3.1–100 μg/mL, IDPS, France) was used as a positive control drug. The microwell plates were incubated for 72 h at 26 °C, the optical density of each well was measured and the IC50 values calculated. All assays were performed in triplicate.

Data set [2] in a line: Cytotoxicity in murine macrophage cells (resazurin). The class given is cell-based. The settings on record: mouse, Raw 264.7 macrophage cells, Raw 264.7 murine macrophage cells, triplicate. How it is done:
The Raw 264.7 murine macrophage cell line was purchased from the American Type Culture Collection (ATCC-TIB71) (Manassas, VA, USA). The cells were maintained in DMEM-HG medium supplemented with 10% fetal bovine serum, 100 U/mL of penicillin and 100 μg/mL of streptomycin and sodium bicarbonate (2.2 g/L) in humidified atmosphere at 37 °C with 5% CO2. Samples were prepared as described above and added (in […]) at different concentrations (6.2–200 μg/mL). Medium blank, control drugs and cell growth controls were included to evaluate cell viability. The plates were incubated for 72 h at 37 °C with 5% CO2. After incubation for the indicated time, the cells were washed, after which 10 μL of Resazurin reagent (2.0 mM) was added. They were further incubated at 37 °C for 3 h in a humidified incubator. The IC50 values were assessed using a fluorometric reader (540 nm excitation, 590 nm emission) and Gen5 software. All assays were performed in triplicate.
(Resazurin is reduced to fluorescent resorufin, in cell work by metabolically active cells.)

Data set [3] relates to Leishmania amazonensis promastigotes. In words: In vitro leishmanicidal activity against promastigotes. The settings on record: 72 h, read-out: Leishmanicidal activity L.a, IC50. The class given is cell-based. As for the experimental part: as §1
Setting [4] is: L. braziliensis M2904 C192 RJA promastigotes, 26 °C, triplicate.
Where [5] appears, read: L. amazonensis Clone 1 NHOM-BR-76-LTB-012 promastigotes, 26 °C, triplicate.

In general, IC50 refers to the point on the concentration scale where inhibition reaches its midpoint. A word on the melting point: it is the temperature of the solid-liquid transition. Molecule `COC(=O)CC1C(C)(C)OC(=O)CC2OC3(C)C4C(=O)CC(c5ccoc5)C4(C)C(OC(C)=O)C(OC(=O)C(C)C)C3C21C` (stereo not drawn) [Compound 1, Trichilone A] had a melting point of 143 °C. For the same molecule, the IC50 in data set [1] (setting [4]) was found to be 58 ± 18 µg/mL (≈ 94 µM). For the same molecule, in data set [2], the IC50 at 72 h came out at 42 ± 0.9 µg/mL (≈ 68.1 µM).

As for `CCC(C)C(=O)OC1C(OC(C)=O)C2(C)C(c3ccoc3)CC(=O)C2C2(C)OC3CC(=O)OC(C)(C)C(CC(=O)OC)C3(C)C12` (stereo not drawn) [Compound 2, Trichilone B], the IC50 is 70.1 ± 3 µg/mL (≈ 111 µM) in data set [1] (setting [4]) and above 100 µg/mL in data set [3] (setting [5]). The IC50 at 72 h in data set [2] stood at 30 ± 10 µg/mL (≈ 47.6 µM).

In the case of `CCC(C)C(=O)OC1C(OC(C)=O)C2(C)C(c3ccoc3)CC(=O)C2C2(C)OC3CC(=O)OC(C)(C)C(CC(=O)OC)C3(C)C12O` (stereo not drawn) [Compound 3, Trichilone C], the IC50 in data set [1] was 87.2 ± 13 µg/mL (≈ 135 µM); in data set [3] it was above 100 µg/mL. In data set [2], this molecule had an IC50 at 72 h of 60 ± 17 µg/mL (≈ 92.8 µM).

`COC(=O)CC1C(C)(C)OC(=O)C=C2OC3(C)C(C(OC(C)=O)C(OC(C)=O)C4(C)C(c5ccoc5)CC(=O)C34)C21C` (stereo not drawn) [Compound 4, Trichilone D]: the figures for the IC50 in data set [1] (setting [4]) and in data set [3] (setting [5]) were 98.5 ± 1.5 µg/mL (≈ 168 µM) and above 100 µg/mL, respectively. The molecule also returned an IC50 at 72 h in data set [2] of 94.1 ± 4.2 µg/mL (≈ 160 µM).

With `COC(=O)CC1C(C)(C)OC(=O)C=C2OC3(C)C(C(OC(=O)C(C)C)C(OC(C)=O)C4(C)C(c5ccoc5)CC(=O)C34)C21C` (stereo not drawn) [Compound 5, Trichilone E], the figures for the IC50 in data set [1] (setting [4]) and in data set [3] (setting [5]) were 68.1 ± 6 µg/mL (≈ 111 µM) and 92 ± 7 µg/mL (≈ 150 µM), respectively. This molecule also yielded an IC50 at 72 h in data set [2] of 41.5 ± 24 µg/mL (≈ 67.5 µM).

Consider `CCCCCCCCCCCCCCCCOP(=O)([O-])OCC[N+](C)(C)C` [Miltefosine, reference compound], for which the IC50 in data set [1] (setting [4]) amounted to 4.07 ± 0.5 µg/mL (≈ 9.99 µM); in data set [3] (setting [5]), 5 ± 0.2 µg/mL (≈ 12.3 µM). In addition, inhibition in data set [2] was half-maximal at 21 ± 2 µg/mL (≈ 51.5 µM) (IC50 at 72 h).
